The test system of the test is C2C12 cells. The experiment in a line: Myotube cell differentiation promotion test (Fusion index). The test is classed as cell-based, mouse. The note with it: 0.5 μM LDN-193189 with DMSO; 3 days; Comparative Example i2-2 55.1 ± 0.09. The method, then: (Cells) • Mouse Myoblasts C2C12 Cells (ATCC, CRL-1772) (Culture Mediums) • Growth culture medium composition: DMEM culture medium, 10% FBS, antibiotics added • Differentiation culture medium composition: DMEM culture medium, 0.5% FBS, antibiotics added C2C12 cells were cultivated using a growth culture medium in a T-75 flask (75 cm^2 U-shaped canted neck cell culture flask, commercially available from Corning Co., Ltd.). The T-75 flask was put into a CO2 incubator (5% CO2, 37° C., wet) and the C2C12 cells were cultured. The culture medium was replaced every other day, and when an 80% confluence was reached, the cells were collected and used for the test. Here, in the following test, regarding a well plate for culturing C2C12 cells, a plate coated with gelatin according to the following coating method was used. Pre-cultured cells were seeded in a 96-well plate for fluorescence observation at 4×10^4 cells/0.1 mL/well using a growth culture medium. The well plate was cultured in a CO2 incubator (5% CO2, 37° C.) for 2 days. […] After the culture medium was replaced, culturing was performed for 3 days, and after fixing, immunostaining with anti-myosin heavy chain (MHC) antibodies was performed. […] A total number of Hoechst positive nuclei and the number of MHC-positive nuclei were measured, and the Fusion index (% of MHC+nuclei) was calculated according to the following formula. […]

The text below walks through data of patent US12102709B2, “Anti-obesity agent, anti-dementia agent, deodorant, anti-aging agent, anti-glycation agent, anti-type I allergy agent, hypotensive agent, flavor improving agent, muscle enhancing agent, and bone metabolism improving agent” (Mitsui Sugar Co., Ltd., priority 2018, dated 2024).

Regarding `c1ccc2c(-c3cnn4cc(-c5ccc(N6CCNCC6)cc5)cnc34)ccnc2c1` [Positive Control i2, 4-(6-(4-(piperazine-1-yl)phenyl)pyrazolo[1,5-a]pyrimidin-3-yl)quinoline], the “Fusion index (% of MHC + nuclei)” value was determined as 63.7 ± 0.88 %.
